Target: Signal transducer and activator of transcription 3 (Homo sapiens, UniProt P40763)
Assay: Inhibition of STAT3 in human K562 cells assessed as reduction in STAT3 phosphorylation

Sequence of Signal transducer and activator of transcription 3 (P40763 whole entry): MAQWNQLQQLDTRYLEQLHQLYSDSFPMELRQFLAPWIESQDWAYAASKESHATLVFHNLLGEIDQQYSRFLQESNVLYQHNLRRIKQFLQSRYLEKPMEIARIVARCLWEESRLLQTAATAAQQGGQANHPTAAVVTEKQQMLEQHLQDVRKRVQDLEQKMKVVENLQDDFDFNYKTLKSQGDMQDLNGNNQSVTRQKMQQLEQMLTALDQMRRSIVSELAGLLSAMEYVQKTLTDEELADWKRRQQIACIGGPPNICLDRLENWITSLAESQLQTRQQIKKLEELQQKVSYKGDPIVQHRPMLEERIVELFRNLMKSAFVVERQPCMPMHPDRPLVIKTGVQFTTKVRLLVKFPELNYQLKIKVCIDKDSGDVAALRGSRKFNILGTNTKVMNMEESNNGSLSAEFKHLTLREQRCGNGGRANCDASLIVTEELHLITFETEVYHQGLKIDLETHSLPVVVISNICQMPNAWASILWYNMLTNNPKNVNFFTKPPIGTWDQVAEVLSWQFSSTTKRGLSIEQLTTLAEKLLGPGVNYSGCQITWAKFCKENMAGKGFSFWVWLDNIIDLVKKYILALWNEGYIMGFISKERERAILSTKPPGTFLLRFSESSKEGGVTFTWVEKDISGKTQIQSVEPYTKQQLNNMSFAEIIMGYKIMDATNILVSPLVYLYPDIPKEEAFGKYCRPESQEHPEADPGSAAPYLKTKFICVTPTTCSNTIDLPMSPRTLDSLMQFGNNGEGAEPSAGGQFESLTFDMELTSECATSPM

CCc1ccc(Nc2nc3cc(N)ccc3o2)cc1
IC50: 18.9 µM

CCc1ccc(Nc2nc3cc(NC(=O)c4ccccc4)ccc3o2)cc1
IC50: 5.8 µM
